Where “and” joins values, the source holds several entries; their conditions need not be identical. Identical values can stand only once. Like-named read-outs stand apart in the source and are kept apart here.
Tests used:
[1] = Microsome Stability Mouse; type: in vitro ADME; conditions: mouse microsomes
[2] = target: EGFR Wild type vIII Ba/F3 cells (Homo sapiens (Human), UniProt P00533, DELINS30-297G); experiment: Ba/F3 cell growth inhibition (MTS assay), EGFR Wild type vIII; type: cell-based
[3] = target: EGFR Del Ba/F3 cells (Homo sapiens, UniProt P00533, cells depend on it, form not given); experiment: Ba/F3 cell growth inhibition (MTS assay), EGFR Del; type: cell-based; conditions: for EGFR activity (% Control, 1.0 μM drug) Assay 1 Del / IC50: Assay 1; for IC50: Del, read-out: EGFR Ba/F3 cells IC 50 (nM) Assay 1 Del; for EGFR activity (% Control, 100 nM drug) Del: Table G
Description: (§1) The specific cDNAs encoding the oncogenic alterations (EGFR: Del 19, L858R, L718Q, L844V, Del/T790M, L858R/T790M, Del 19/L718Q, Del 19/L844V, Del 19/T790M/L718Q and L858R/T790M/L718Q; FGFR: TEL-FGFR1, TEL-FGFR2, TEL-FGFR1 V561M, TEL-FGFR2 V561M; ALK: EML4-ALK; ROS1: CD74-ROS1) were cloned into the pDNA-Dual (BD Biosciences) vector using standard molecular biology techniques. Mutations were introduced using site-directed mutagenesis (Agilent) with mutant specific primers according to the manufacturer's instructions. All constructs were confirmed by DNA sequencing. The constructs were introduced into Ba/F3 cells using retroviral infection. Polyclonal cell lines were established by puromycin selection and subsequently cultured in the absence of interleukin-3 (IL-3). Uninfected Ba/F3 cells or cell lines expressing green fluorescent protein (GFP) were used as controls.
(§2) Growth and inhibition of growth was assessed by MTS assay. This assay, a colorimetric method for determining the number of viable cells, is based on the bioreduction of 3-(4,5-dimethylthiazol-2-yl)-5-(3-carboxymethoxyphenyl)-2-(4-sulfophenyl)-2H-tetrazolium (MTS) by cells to a formazan product that is soluble in cell culture medium, can be detected spectrophotometrically and was performed according to the manufacturer's recommended conditions. Ba/F3 cells were exposed to treatment for 72 hours and the number of cells used per experiment determined empirically to assure linear growth kinetics over that time period. All experimental points were set up in six to twelve wells and all experiments were repeated at least three times. […] The curves were fitted using a non-linear regression model with a sigmoidal dose response.

[4] = target: EGFR Del/T790M Ba/F3 cells (Homo sapiens, UniProt P00533, T790M, cells depend on it, form not given); experiment: Ba/F3 cell growth inhibition (MTS assay), EGFR Del/T790M; type: cell-based; conditions: for EGFR activity (% Control, 1.0 μM drug) Assay 1 Del/T790M / IC50: Assay 1; for IC50: Del/T790M, read-out: EGFR Ba/F3 cells IC 50 (nM) Assay 1 Del/T790M; for EGFR activity (% Control, 100 nM drug) Del/T790M: Table G
Description: as §1, §2

[5] = target: EGFR Del/T790M/L718Q Ba/F3 cells (Homo sapiens, UniProt P00533, L718Q/T790M, cells depend on it, form not given); type: cell-based
Description: as §1, §2

[6] = target: EGFR L858R Ba/F3 cells (Homo sapiens (Human), UniProt P00533, L858R); experiment: Ba/F3 cell growth inhibition (MTS assay), EGFR L858R; type: cell-based; conditions: for EGFR activity (% Control, 1.0 μM drug) Assay 1 L858R / IC50: Assay 1; for IC50: L858R, read-out: EGFR Ba/F3 cells IC 50 (nM) Assay 1 L858R; for EGFR activity (% Control, 100 nM drug) L858R: Table G
Description: as §1, §2

[7] = target: EGFR L858R/T790M Ba/F3 cells (Homo sapiens (Human), UniProt P00533, L858R/T790M); experiment: Ba/F3 cell growth inhibition (MTS assay), EGFR L858R/T790M; type: cell-based; conditions: for IC50: Assay 1, L858R/T790M, read-out: EGFR Ba/F3 cells IC 50 (nM) Assay 1 L858R/T790M; for EGFR activity (% Control, 100 nM drug) L858R/T790M: Table G
Description: as §1, §2

[8] = target: EGFR L718Q/L858R Ba/F3 cells (Homo sapiens (Human), UniProt P00533, L718Q/L858R); experiment: Ba/F3 cell growth inhibition (MTS assay), EGFR L858R/L718Q; type: cell-based; conditions: L718Q/L858R
[9] = target: EGFR L858R/T790M/L718Q Ba/F3 cells (Homo sapiens (Human), UniProt P00533, L718Q/L858R/T790M); experiment: Ba/F3 cell growth inhibition (MTS assay), EGFR L858R/T790M/L718Q; type: cell-based
Description: as §1, §2

[10] = system: KIF5B/Ret_V804M; experiment: Ba/F3 cell growth inhibition (MTS assay), KIF5B/Ret_V804M; type: cell-based
Procedure: as §2

[11] = target: BTK (Homo sapiens (Human), UniProt Q06187); experiment: BTK kinase assay (LanthaScreen Kinase assay); type: biochemical
Procedure: BTK kinase assay was conducted using LanthaScreen® Kinase assay.
1. Optimization of kinase concentration required to determine ATP Km,app. The assay was first performed at a high concentration of ATP (1 mM) against a dilution series of kinase in order to determine the amount of kinase required to elicit an approximately 80% change between the minimum and maximum TR-FRET emission ratios (the EC80 value).
2. Determination of ATP Km,app. Using the concentration of enzyme determined in step 1, the assay was then performed against a dilution series of ATP in order to determine the amount of ATP required to elicit a 50% change between the minimum and maximum TR-FRET emission ratios (the EC50 value). This concentration of ATP was referred to as the “apparent” Km value for ATP, or the ATP Km,app.
3. Optimization of kinase concentration required for assay at ATP Km,app. Using the ATP Km,app concentration of ATP determined in step 2, the kinase titration was repeated in order to determine the concentration of kinase required to elicit an approximately 80% change between the minimum and maximum TR-FRET emission ratios at the ATP Km,app concentration of ATP (the EC80 value). This was the concentration of kinase that will be used in an assay to determine an IC50 value for a compound of the invention.
Using the ATP and kinase concentrations determined above, the reaction was then performed in the presence of a dilution series of various compounds of the invention, and the amount of compounds required to elicit a 50% change in TR-FRET ratio (the IC50) was determined. The experiments can be performed over two days, with steps one and two being performed on the first day, and step three and the inhibitor IC50 determination(s) being performed on the second day.

[12] = target: BLK (Homo sapiens (Human), UniProt P51451); experiment: Kinase inhibition BLK; type: biochemical
[13] = target: ITK (Homo sapiens (Human), UniProt Q08881); experiment: Kinase inhibition ITK; type: biochemical
[14] = target: TEC (Homo sapiens (Human), UniProt P42680); experiment: Kinase inhibition TEC; type: biochemical
[15] = target: TXK (Homo sapiens (Human), UniProt P42681); experiment: Kinase inhibition TXK; type: biochemical
TXK, sequence (P42681 whole entry): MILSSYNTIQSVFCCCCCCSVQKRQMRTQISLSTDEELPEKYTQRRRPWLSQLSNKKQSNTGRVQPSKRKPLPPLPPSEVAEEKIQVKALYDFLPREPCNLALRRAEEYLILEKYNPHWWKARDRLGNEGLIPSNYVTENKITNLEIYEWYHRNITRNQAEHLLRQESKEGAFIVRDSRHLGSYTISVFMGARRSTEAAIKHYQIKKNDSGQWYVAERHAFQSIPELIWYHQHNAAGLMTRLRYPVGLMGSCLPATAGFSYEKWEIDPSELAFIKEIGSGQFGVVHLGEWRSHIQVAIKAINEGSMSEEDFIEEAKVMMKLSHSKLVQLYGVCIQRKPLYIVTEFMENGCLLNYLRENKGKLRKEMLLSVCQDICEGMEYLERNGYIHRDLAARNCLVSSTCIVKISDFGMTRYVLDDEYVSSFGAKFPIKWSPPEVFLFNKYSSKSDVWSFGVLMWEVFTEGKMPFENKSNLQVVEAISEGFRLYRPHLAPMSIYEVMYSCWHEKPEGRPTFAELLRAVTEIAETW

BTK, sequence (Q06187 whole entry): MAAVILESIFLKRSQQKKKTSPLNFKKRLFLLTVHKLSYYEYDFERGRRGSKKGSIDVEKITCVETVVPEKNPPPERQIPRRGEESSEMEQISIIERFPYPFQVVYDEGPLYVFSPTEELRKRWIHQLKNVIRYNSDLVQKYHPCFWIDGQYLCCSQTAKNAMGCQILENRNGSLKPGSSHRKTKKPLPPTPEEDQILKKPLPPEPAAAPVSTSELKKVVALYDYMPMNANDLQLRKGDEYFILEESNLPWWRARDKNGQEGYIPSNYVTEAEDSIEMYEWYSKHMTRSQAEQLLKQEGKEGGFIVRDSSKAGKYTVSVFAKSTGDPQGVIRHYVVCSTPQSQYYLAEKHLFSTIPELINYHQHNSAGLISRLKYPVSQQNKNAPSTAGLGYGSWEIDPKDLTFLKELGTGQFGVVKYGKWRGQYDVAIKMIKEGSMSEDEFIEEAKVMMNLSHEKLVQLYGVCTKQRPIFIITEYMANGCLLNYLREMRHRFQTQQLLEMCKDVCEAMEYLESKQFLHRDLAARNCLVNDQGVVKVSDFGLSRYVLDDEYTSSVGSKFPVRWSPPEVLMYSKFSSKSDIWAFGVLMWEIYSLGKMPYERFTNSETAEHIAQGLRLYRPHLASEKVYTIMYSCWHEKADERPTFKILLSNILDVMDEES
TEC, sequence (P42680 whole entry): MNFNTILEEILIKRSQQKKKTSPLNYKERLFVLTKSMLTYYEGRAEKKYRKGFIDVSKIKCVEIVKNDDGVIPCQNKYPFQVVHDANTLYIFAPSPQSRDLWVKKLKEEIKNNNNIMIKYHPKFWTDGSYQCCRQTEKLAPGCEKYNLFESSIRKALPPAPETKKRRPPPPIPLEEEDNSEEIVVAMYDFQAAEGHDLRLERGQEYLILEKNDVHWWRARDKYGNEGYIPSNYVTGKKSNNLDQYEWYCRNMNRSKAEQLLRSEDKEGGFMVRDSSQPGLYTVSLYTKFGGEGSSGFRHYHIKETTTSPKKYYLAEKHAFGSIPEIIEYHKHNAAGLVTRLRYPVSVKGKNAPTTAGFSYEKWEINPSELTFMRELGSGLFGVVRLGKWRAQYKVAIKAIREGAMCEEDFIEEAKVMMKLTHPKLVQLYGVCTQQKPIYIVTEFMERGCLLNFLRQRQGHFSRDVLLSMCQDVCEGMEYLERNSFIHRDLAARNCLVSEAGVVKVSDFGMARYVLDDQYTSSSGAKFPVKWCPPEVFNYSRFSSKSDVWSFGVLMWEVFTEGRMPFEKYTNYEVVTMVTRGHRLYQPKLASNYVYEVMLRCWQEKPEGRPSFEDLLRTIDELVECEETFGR
ITK, sequence (Q08881 whole entry): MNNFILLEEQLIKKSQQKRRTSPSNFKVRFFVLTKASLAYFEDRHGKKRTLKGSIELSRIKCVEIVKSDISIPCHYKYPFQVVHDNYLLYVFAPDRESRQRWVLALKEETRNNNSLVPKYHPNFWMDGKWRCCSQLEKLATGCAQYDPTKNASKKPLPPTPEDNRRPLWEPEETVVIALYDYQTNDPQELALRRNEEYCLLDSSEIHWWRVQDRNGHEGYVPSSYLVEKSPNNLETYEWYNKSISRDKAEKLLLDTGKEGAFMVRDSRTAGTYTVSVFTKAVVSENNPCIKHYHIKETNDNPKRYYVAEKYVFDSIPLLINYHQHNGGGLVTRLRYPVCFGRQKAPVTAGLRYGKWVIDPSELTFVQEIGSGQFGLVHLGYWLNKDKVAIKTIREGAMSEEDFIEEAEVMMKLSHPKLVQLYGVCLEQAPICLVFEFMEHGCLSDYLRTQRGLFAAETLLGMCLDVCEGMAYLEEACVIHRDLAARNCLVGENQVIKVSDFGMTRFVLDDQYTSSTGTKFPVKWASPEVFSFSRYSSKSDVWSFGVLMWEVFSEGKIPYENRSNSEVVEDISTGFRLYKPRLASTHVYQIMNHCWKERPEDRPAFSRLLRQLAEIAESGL
BLK, sequence (P51451 whole entry): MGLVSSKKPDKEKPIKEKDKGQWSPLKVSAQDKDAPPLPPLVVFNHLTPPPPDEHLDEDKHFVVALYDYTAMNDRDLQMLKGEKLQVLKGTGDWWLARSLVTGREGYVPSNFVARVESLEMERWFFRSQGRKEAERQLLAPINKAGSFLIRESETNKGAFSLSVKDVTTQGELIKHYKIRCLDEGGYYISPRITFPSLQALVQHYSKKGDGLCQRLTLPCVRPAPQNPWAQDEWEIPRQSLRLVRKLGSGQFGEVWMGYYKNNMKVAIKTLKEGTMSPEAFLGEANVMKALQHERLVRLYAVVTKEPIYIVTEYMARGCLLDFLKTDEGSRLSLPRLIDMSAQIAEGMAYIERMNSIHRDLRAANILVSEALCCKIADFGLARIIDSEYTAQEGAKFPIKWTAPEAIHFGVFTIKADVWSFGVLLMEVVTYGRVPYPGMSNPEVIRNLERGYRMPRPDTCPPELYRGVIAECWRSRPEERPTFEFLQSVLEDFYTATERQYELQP

Row | SMILES | Microsome Stability Mouse min [1] [min] | EGFR activity (% Control, 1.0 μM drug) Assay 1 Del [3] [% Control] | EGFR activity (% Control, 1.0 μM drug) Assay 2 Del [3] [% Control] | IC50 [3] [nM] | EGFR activity (% Control, 1.0 μM drug) Assay 1 Del/T790M [4] [% Control] | EGFR activity (% Control, 1.0 μM drug) Assay 2 Del/T790M [4] [% Control] | IC50 [4] [nM] | EGFR activity (% Control, 1.0 μM drug) Assay 1 Del/T790M/L718Q ([5]; Assay 1) [% Control] | EGFR activity (% Control, 1.0 μM drug) Assay 2 Del/T790M/L718Q [5] [% Control] | EGFR activity (% Control, 1.0 μM drug) Assay 1 L858R [6] [% Control] | EGFR activity (% Control, 1.0 μM drug) Assay 2 L858R [6] [% Control] | IC50 [6] [nM] | IC50 [7] [nM] | EGFR activity (% Control, 100 nM drug) Del [3] [% Control] | EGFR activity (% Control, 100 nM drug) Del/T790M [4] [% Control] | EGFR activity (% Control, 100 nM drug) L858R [6] [% Control] | EGFR activity (% Control, 100 nM drug) L858R/T790M [7] [% Control] | IC50 [11] [nM] | also measured
1 | C=CC(=O)Nc1cccc(N(C(=O)Oc2ccccc2)c2ccnc(Nc3ccc(N4CCN(C)CC4)cc3OC)n2)c1 [Compound 10A] | 18.5 | 4 | 1 | 4.64 | 2 | 2 | 22.9 | 76 | 84 | 4 | 3 | 1.52 | 14.8 | – | – | – | – | – | IC50 ([2]; read-out: EGFR Ba/F3 cells IC 50 (nM) Assay 1 Wild type vIII): 28.1 nM; IC50 ([5]; read-out: EGFR Ba/F3 cells IC 50 Assay 1 Del/T/L718Q, Assay 1, Del/T/L718Q): > 1000 nM and 1000 nM; IC50 ([8]; read-out: EGFR Ba/F3 cells IC 50 (nM) Assay 1 L718Q/L858R, Assay 1): 146 nM; IC50 ([8]; read-out: EGFR Ba/F3 cells IC 50 (nM) Assay 2 L718Q/L858R, Assay 2): 204 nM; IC50 ([9]; read-out: EGFR Ba/F3 cells IC 50 (nM) Assay 1 T/L/L718Q; Assay 1; T/L/L718Q): 270 nM; KIF5B/Ret_V804M Ba/F3 cell growth (% control, 1.0 μM drug) ([10]; Assay 1): 91 % Control
2 | C=CC(=O)Nc1cccc(N(C(=O)Nc2ccccc2)c2cc(Nc3ccc(N4CCN(C)CC4)cc3)ncn2)c1 [Compound 25A] | – | – | – | – | – | – | – | – | – | – | – | – | – | 14 | 53 | 1 | 24 | 31.2 | –
3 | C=CC(=O)Nc1cccc(N(C(=O)NCc2ccccc2)c2cc(Nc3ccc(N4CCN(C)CC4)cc3)ncn2)c1 [Compound 29A] | – | – | – | – | – | – | – | – | – | – | – | – | – | 2 | 6 | 0 | 13 | 19.4 | –
4 | C=CC(=O)Nc1cc(Nc2nccc(N(C)C(=O)Oc3ccccc3)n2)c(OC)cc1N(C)CCN(C)C [Compound 80A] | – | – | – | – | – | – | – | – | – | – | – | – | – | – | – | – | – | – | Kinase inhibition (% control, 1000 nM compound) BLK [12]: 14 % control; Kinase inhibition (% control, 1000 nM compound) ITK [13]: 94 % control; Kinase inhibition (% control, 1000 nM compound) TEC [14]: 90 % control; Kinase inhibition (% control, 1000 nM compound) TXK [15]: 12 % control
5 | C=CC(=O)Nc1cccc(N(C(=O)Nc2ccccc2)c2cc(Nc3ccc(N4CCN(C)CC4)cc3OC)ncn2)c1 [Compound 1A, N-(3-(1-(6-((2-methoxy-4-(4-methylpiperazin-1-yl)phenyl)amino)pyrimidin-4-yl)-3-phenylureido)phenyl)acrylamide] | 14 | 4 | 0 | 6.33 | 3 | 1 | 19 | 63 | 83 | 2 | 5 | 1.56 | 3.1 | – | – | – | – | – | IC50 ([2]; Assay 1, read-out: EGFR Ba/F3 cells IC 50 (nM) Assay 1 Wild type vIII): 16.4 nM; EGFR Ba/F3 cells Assay 1 Del/T/L718Q % inhibition 1.0 uM ([5]; Assay 1, Del/T/L718Q, 1.0 uM): 47%; IC50 ([8]; Assay 1, read-out: EGFR Ba/F3 cells IC 50 (nM) Assay 1 L718Q/L858R): 49.8 nM; IC50 ([8]; Assay 2, read-out: EGFR Ba/F3 cells IC 50 (nM) Assay 2 L718Q/L858R): 149 nM; IC50 ([9]; Assay 1; T/L/L718Q; read-out: EGFR Ba/F3 cells IC 50 (nM) Assay 1 T/L/L718Q): 178 nM; EGFR activity (% Control, 1.0 μM drug) Assay 1 KIF5B/Ret_V804M [10]: 65 % Control

Source: patent US10906878B2, “Kinase inhibitors for the treatment of disease” (Dana-Farber Cancer Institute, Inc., priority 2013, dated 2021)
